{"source": "ChEMBL document CHEMBL4330071", "about": "(Eur J Med Chem, 2019)", "key": {"[1]": {"target": "RAC-alpha serine/threonine-protein kinase (Homo sapiens) (UniProt P31749)", "sequence (P31749 whole entry)": "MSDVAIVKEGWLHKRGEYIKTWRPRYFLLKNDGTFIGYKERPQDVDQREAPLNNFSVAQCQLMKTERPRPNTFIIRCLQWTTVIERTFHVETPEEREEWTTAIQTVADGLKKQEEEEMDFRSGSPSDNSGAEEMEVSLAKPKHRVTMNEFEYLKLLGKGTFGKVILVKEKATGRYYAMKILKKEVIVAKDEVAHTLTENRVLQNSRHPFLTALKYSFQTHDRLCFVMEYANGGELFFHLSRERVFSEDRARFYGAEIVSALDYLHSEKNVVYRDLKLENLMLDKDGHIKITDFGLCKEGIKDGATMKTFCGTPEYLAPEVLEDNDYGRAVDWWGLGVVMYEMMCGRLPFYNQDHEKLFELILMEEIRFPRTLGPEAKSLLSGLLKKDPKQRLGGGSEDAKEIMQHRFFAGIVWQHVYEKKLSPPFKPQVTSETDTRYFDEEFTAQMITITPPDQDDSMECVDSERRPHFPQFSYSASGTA", "experiment": "Inhibition of human AKT1 assessed as residual activity at 10 uM using KGSGSGRPRTSSFAEG as substrate preincubated for 20 mins followed by [gamma-33P]-ATP addition and measured after 120 mins by Hotspot assay relative to control"}, "[2]": {"target": "ALK tyrosine kinase receptor (Homo sapiens, UniProt Q9UM73)", "sequence (Q9UM73 19-1620 limits assumed)": "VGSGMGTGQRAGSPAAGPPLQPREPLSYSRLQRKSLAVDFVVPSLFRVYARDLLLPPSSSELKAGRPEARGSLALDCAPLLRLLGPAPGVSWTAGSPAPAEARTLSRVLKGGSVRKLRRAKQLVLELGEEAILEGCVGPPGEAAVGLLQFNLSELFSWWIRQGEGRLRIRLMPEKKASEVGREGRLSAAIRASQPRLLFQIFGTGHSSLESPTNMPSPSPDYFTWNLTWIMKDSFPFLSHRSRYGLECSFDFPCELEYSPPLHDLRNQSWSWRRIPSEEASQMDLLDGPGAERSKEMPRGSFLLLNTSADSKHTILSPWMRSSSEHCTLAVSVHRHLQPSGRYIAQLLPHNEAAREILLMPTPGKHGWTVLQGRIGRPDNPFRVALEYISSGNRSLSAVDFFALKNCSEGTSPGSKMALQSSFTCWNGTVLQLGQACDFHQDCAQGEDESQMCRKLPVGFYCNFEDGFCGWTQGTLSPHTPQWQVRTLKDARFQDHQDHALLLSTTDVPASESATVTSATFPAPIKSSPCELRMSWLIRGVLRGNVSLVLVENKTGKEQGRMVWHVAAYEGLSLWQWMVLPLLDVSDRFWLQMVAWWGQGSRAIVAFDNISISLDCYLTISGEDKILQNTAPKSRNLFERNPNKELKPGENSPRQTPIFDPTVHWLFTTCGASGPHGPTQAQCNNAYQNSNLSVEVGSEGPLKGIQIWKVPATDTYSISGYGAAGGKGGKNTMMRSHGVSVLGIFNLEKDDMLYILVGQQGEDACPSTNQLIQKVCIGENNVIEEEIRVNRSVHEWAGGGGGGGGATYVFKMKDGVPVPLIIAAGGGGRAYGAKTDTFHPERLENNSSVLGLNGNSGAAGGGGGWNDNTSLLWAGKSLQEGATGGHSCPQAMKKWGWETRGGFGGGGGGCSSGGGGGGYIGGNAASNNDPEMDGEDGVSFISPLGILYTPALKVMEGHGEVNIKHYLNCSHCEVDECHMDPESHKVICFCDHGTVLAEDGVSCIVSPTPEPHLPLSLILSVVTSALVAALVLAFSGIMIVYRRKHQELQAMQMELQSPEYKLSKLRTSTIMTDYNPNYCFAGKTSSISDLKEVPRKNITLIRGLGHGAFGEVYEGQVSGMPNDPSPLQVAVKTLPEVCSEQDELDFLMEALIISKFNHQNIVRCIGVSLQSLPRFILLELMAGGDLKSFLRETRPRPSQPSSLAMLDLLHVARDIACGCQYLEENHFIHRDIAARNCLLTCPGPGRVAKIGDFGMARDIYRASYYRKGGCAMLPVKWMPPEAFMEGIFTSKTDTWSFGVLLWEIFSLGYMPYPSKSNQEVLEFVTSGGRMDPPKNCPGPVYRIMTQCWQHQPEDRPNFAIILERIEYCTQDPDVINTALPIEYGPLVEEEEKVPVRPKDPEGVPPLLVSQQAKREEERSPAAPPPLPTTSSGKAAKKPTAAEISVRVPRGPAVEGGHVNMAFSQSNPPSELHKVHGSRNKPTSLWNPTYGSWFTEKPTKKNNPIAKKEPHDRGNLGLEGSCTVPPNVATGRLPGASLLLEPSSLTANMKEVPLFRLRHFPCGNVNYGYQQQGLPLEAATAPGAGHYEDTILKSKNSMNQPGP", "experiment": "Inhibition of human ALK assessed as residual activity at 10 uM using poly[Glu:Tyr] (4:1) as substrate preincubated for 20 mins followed by [gamma-33P]-ATP addition and measured after 120 mins by Hotspot assay relative to control"}, "[3]": {"target": "Aurora kinase A (Homo sapiens) (UniProt O14965)", "sequence (O14965 whole entry)": "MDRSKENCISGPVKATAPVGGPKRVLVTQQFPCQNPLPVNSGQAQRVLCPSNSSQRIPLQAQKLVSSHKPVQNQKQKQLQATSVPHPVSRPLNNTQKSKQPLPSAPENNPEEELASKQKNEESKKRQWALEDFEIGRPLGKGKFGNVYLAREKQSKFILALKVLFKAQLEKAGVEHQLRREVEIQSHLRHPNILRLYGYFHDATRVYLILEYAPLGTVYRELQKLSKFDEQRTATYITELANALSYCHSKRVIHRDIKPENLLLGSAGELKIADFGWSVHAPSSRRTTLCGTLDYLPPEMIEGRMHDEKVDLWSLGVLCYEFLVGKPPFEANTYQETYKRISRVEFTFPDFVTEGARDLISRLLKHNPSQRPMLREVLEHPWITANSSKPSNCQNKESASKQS", "experiment": "Inhibition of human Aurora A assessed as residual activity at 10 uM using [H-LRRASLG] as substrate preincubated for 20 mins followed by [gamma-33P]-ATP addition and measured after 120 mins by Hotspot assay relative to control"}, "[4]": {"target": "Cyclin-dependent kinase 4/cyclin D1 (Homo sapiens) (UniProt P11802+P24385)", "experiment": "Inhibition of human CDK4/cyclin-D1 assessed as residual activity at 10 uM using RB protein as substrate preincubated for 20 mins followed by [gamma-33P]-ATP addition and measured after 120 mins by Hotspot assay relative to control", "format": "protein-complex assay"}, "[5]": {"target": "CDK9/cyclin T1 (Homo sapiens) (UniProt O60563+P50750)", "experiment": "Inhibition of human CDK9/cyclin-T1 assessed as residual activity at 10 uM using KTFCGTPEYLAPEVRREPRILSEEEQEMFRDFDYIADWC as substrate preincubated for 20 mins followed by [gamma-33P]-ATP addition and measured after 120 mins by Hotspot assay relative to control", "format": "protein-complex assay"}, "[6]": {"target": "Mitogen-activated protein kinase 3 (Homo sapiens) (UniProt P27361)", "sequence (P27361 whole entry)": "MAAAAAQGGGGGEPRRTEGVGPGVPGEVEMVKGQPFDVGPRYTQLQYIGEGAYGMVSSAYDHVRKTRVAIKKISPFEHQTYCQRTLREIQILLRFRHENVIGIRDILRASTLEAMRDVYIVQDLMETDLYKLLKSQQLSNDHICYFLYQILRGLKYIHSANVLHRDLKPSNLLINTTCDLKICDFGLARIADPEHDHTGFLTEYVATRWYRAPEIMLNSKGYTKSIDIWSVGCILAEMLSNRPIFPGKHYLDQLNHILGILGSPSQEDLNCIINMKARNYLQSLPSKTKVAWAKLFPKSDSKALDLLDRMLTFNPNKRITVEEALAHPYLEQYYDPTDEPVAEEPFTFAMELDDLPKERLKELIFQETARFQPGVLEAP", "experiment": "Inhibition of human ERK1 assessed as residual activity at 10 uM using MBP as substrate preincubated for 20 mins followed by [gamma-33P]-ATP addition and measured after 120 mins by Hotspot assay relative to control"}, "[7]": {"target": "Macrophage colony-stimulating factor 1 receptor (Homo sapiens, UniProt P07333)", "experiment": "Inhibition of human FMS assessed as residual activity at 10 uM using poly[Glu:Tyr] (4:1) as substrate preincubated for 20 mins followed by [gamma-33P]-ATP addition and measured after 120 mins by Hotspot assay relative to control"}, "[8]": {"target": "Mitogen-activated protein kinase 8 (Homo sapiens) (UniProt P45983)", "sequence (P45983 whole entry)": "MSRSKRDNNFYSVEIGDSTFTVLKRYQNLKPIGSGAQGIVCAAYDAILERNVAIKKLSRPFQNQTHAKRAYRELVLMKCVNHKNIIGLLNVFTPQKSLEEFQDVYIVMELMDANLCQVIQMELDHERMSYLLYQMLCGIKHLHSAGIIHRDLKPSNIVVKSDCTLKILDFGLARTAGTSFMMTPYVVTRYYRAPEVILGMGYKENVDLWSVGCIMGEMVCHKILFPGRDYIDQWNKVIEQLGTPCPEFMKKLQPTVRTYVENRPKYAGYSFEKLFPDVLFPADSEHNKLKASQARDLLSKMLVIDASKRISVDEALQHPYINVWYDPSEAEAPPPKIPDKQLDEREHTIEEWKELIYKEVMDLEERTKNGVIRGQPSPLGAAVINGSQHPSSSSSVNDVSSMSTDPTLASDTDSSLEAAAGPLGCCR", "experiment": "Inhibition of human JNK1 assessed as residual activity at 10 uM using ATF2 as substrate preincubated for 20 mins followed by [gamma-33P]-ATP addition and measured after 120 mins by Hotspot assay relative to control"}, "[9]": {"target": "Dual specificity mitogen-activated protein kinase kinase 1 (Homo sapiens) (UniProt Q02750)", "experiment": "Inhibition of human MEK1 assessed as residual activity at 10 uM using ERK2 as substrate preincubated for 20 mins followed by [gamma-33P]-ATP addition and measured after 120 mins by Hotspot assay relative to control"}, "[10]": {"target": "Serine/threonine-protein kinase Nek2 (Homo sapiens) (UniProt P51955)", "experiment": "Inhibition of human NEK2 assessed as residual activity at 10 uM using MBP as substrate preincubated for 20 mins followed by [gamma-33P]-ATP addition and measured after 120 mins by Hotspot assay relative to control"}, "[11]": {"target": "Mitogen-activated protein kinase 14 (Homo sapiens) (UniProt Q16539)", "experiment": "Inhibition of human p38alpha assessed as residual activity at 10 uM using MBP as substrate preincubated for 20 mins followed by [gamma-33P]-ATP addition and measured after 120 mins by Hotspot assay relative to control"}, "[12]": {"target": "Tyrosine-protein kinase ABL1 (Homo sapiens, UniProt P00519, F317I)", "experiment": "Binding affinity to human non-phosphorylated ABL1 F317I mutant (S229 to K512 residues) expressed in mammalian expression system after 60 mins by Kinomescan method"}, "[13]": {"target": "Tyrosine-protein kinase ABL1 (Homo sapiens, UniProt P00519, H396P)", "experiment": "Binding affinity to human non-phosphorylated ABL1 H396P mutant (S229 to K512 residues) expressed in mammalian expression system after 60 mins by Kinomescan method"}, "[14]": {"target": "Tyrosine-protein kinase ABL1 (Homo sapiens, UniProt P00519, T315I)", "experiment": "Binding affinity to human non-phosphorylated ABL1 T315I mutant (S229 to K512 residues) expressed in mammalian expression system after 60 mins by Kinomescan method"}, "[15]": {"target": "Tyrosine-protein kinase ABL1 (Homo sapiens, UniProt P00519)", "experiment": "Binding affinity to wild-type human phosphorylated ABL1 (S229 to K512 residues) expressed in mammalian expression system after 60 mins by Kinomescan method"}, "[16]": {"target": "Mast/stem cell growth factor receptor Kit (Homo sapiens, UniProt P10721)", "sequence (P10721 whole entry, the tested form may be a part)": "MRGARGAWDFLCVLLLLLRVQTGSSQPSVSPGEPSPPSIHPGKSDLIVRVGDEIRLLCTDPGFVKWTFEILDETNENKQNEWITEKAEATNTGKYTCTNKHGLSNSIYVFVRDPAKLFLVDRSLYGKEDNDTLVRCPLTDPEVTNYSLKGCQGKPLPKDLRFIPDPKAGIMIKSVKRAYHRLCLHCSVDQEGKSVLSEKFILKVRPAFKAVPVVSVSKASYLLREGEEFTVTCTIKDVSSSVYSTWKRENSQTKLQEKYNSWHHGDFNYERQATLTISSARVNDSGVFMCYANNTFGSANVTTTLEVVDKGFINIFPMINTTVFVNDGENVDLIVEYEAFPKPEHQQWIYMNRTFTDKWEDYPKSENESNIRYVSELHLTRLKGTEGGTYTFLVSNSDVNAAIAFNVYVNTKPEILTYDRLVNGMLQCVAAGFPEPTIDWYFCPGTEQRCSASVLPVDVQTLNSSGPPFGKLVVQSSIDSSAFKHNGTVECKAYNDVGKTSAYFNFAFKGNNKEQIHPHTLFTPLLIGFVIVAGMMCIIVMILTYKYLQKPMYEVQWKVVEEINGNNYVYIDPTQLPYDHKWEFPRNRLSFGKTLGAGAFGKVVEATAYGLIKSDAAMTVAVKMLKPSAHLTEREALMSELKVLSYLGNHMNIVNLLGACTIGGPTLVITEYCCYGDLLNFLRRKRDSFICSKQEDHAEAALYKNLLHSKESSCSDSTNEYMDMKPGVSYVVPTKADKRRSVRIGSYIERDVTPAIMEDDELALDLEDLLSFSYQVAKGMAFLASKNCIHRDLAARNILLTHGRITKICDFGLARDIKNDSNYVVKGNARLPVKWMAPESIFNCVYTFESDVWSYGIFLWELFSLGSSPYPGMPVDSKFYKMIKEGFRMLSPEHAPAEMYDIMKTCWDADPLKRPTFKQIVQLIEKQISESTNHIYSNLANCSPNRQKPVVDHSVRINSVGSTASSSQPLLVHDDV", "experiment": "Binding affinity to wild-type human partial length KIT (I571 to D952 residues) expressed in bacterial expression system after 60 mins by Kinomescan method"}, "[17]": {"target": "Proto-oncogene tyrosine-protein kinase Src (Homo sapiens, UniProt P12931)", "sequence (P12931 2-536 limits assumed)": "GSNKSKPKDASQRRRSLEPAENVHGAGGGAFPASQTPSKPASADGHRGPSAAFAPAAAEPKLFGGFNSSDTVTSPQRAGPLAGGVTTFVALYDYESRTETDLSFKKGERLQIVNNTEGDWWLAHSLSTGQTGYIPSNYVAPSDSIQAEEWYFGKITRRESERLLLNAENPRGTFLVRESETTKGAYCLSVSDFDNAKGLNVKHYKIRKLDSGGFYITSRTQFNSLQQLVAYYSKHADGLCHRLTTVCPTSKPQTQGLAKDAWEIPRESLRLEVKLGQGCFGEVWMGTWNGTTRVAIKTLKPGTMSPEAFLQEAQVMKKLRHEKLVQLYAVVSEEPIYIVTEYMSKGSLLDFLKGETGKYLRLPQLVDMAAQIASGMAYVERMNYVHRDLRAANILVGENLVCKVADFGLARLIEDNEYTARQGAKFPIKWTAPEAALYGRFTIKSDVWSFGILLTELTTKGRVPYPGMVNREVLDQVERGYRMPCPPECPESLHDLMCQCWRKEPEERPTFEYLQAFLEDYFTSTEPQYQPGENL", "experiment": "Inhibition of human c-SRC using poly[Glu:Tyr] (4:1) as substrate preincubated for 20 mins followed by [gamma-33P]-ATP addition and measured after 120 mins by Hotspot assay"}, "[18]": {"system": "HuT78", "experiment": "Growth inhibition of human HUT78 cells at 10 uM after 72 hrs by CellTiter-Glo assay relative to control", "format": "functional", "conditions": "HuT78, 72 h, read-out: GI"}, "[19]": {"system": "MV4-11", "experiment": "Cytotoxicity against human MV4-11 cells at 1 uM after 72 hrs by MTT assay", "format": "cell-based", "conditions": "mv4-11, 72 h"}, "[20]": {"system": "MV4-11", "experiment": "Cell cycle arrest in human MV4-11 cells assessed as accumulation at G2/M phase after 24 hrs by ribonuclease/propidium iodide staining based flow cytometric analysis", "format": "functional"}, "[21]": {"system": "MV4-11", "experiment": "Induction of apoptosis in human MV4-11 cells assessed as early apoptotic cells at 0.02 uM after 24 hrs by Annexin V-FITC/propidium iodide staining based flow cytometric analysis (reference value: 3.39%)", "format": "functional"}, "[22]": {"system": "MV4-11", "experiment": "Induction of apoptosis in human MV4-11 cells assessed as viable cells at 0.05 uM after 24 hrs by Annexin V-FITC/propidium iodide staining based flow cytometric analysis (reference value: 95.19%)", "format": "functional", "conditions": "MV4-11, 24 h, read-out: Activity"}, "[23]": {"system": "MV4-11", "experiment": "Induction of apoptosis in human MV4-11 cells assessed as necrotic cells at 0.1 uM after 24 hrs by Annexin V-FITC/propidium iodide staining based flow cytometric analysis (reference value: 0%)", "format": "functional"}, "[24]": {"system": "MV4-11", "experiment": "Induction of apoptosis in human MV4-11 cells assessed as viable cells at 0.1 uM after 24 hrs by Annexin V-FITC/propidium iodide staining based flow cytometric analysis (reference value: 95.19%)", "format": "functional", "conditions": "MV4-11, 24 h, read-out: Activity"}, "[25]": {"system": "MV4-11", "experiment": "Induction of apoptosis in human MV4-11 cells assessed as early apoptotic cells at 0.2 uM after 24 hrs by Annexin V-FITC/propidium iodide staining based flow cytometric analysis (reference value: 3.39%)", "format": "functional"}, "[26]": {"system": "MV4-11", "experiment": "Induction of apoptosis in human MV4-11 cells assessed as early apoptotic cells at 1 uM after 24 hrs by Annexin V-FITC/propidium iodide staining based flow cytometric analysis (reference value: 3.39%)", "format": "functional"}, "[27]": {"experiment": "Half life in rat liver microsomes at 1 uM after 5 to 60 mins in presence of NADPH by LC-MS/MS analysis", "format": "ADME, Microsome"}}}
{"compound": "CN1CCC(Nc2ccc(C(=O)Nc3cc(-c4cc(C#N)cs4)n[nH]3)cc2)CC1", "values": [{"measurement": "Activity", "setting": "[1]", "value": 90.7, "unit": "%"}, {"measurement": "Activity", "setting": "[2]", "value": 23, "unit": "%"}, {"measurement": "Activity", "setting": "[3]", "value": 58.4, "unit": "%"}, {"measurement": "Activity", "setting": "[4]", "value": 49.2, "unit": "%"}, {"measurement": "Activity", "setting": "[5]", "value": 68.7, "unit": "%"}, {"measurement": "Activity", "setting": "[6]", "value": 87.6, "unit": "%"}, {"measurement": "Activity", "setting": "[7]", "value": 4.66, "unit": "%"}, {"measurement": "Activity", "setting": "[8]", "value": 89.6, "unit": "%"}, {"measurement": "Activity", "setting": "[9]", "value": 91.9, "unit": "%"}, {"measurement": "Activity", "setting": "[10]", "value": 11, "unit": "%"}, {"measurement": "Activity", "setting": "[11]", "value": 98.4, "unit": "%"}, {"measurement": "Kd", "setting": "[12]", "value": "> 10", "unit": "µM"}, {"measurement": "Kd", "setting": "[13]", "value": 0.28, "unit": "µM"}, {"measurement": "Kd", "setting": "[14]", "value": 0.58, "unit": "µM"}, {"measurement": "Kd", "setting": "[15]", "value": 0.52, "unit": "µM"}, {"measurement": "Kd", "setting": "[16]", "value": 0.0022, "unit": "µM"}, {"measurement": "IC50", "setting": "[17]", "value": 2.4, "unit": "µM"}, {"measurement": "inhibition of growth at 10 µM", "setting": "[18]", "value": 3.9, "unit": "%"}, {"measurement": "Activity", "setting": "[19]", "value": "Non-Toxic"}, {"measurement": "Activity", "setting": "[20]", "value": "Dose-dependent effect"}, {"measurement": "Activity", "setting": "[21]", "value": 17.09, "unit": "%"}, {"measurement": "viability at 0.05 µM", "setting": "[22]", "value": 59.6, "unit": "%"}, {"measurement": "Activity", "setting": "[23]", "value": 3, "unit": "%"}, {"measurement": "viability at 0.1 µM", "setting": "[24]", "value": 56.8, "unit": "%"}, {"measurement": "Activity", "setting": "[25]", "value": 25.33, "unit": "%"}, {"measurement": "Activity", "setting": "[26]", "value": 31.43, "unit": "%"}, {"measurement": "half-life at 1 µM", "setting": "[27]", "value": 8.1, "unit": "min"}]}
